From PubChem BioAssay AID1053157 (Broad Institute, 2014)

Key:
Test in all cases: protein binders in hepatoma cell extract, late-stage follow-up, mechanism study for Trib1 inducer project, cell lysate, SILAC, HepG2 extract, LC-MS/MS (AID 1053157)
[1] = target: Ferroptosis suppressor protein 1 (Homo sapiens) (UniProt Q9BRQ8); settings: SILAC chemoproteomic competition binding, Apoptosis-inducing factor
[2] = target: NADH dehydrogenase [ubiquinone] 1 alpha subcomplex subunit 6 (Homo sapiens) (UniProt P56556); settings: SILAC chemoproteomic competition binding
NADH dehydrogenase [ubiquinone] 1 alpha subcomplex subunit 6 (Homo sapiens), sequence (P56556 whole entry, looked up, one chain of several): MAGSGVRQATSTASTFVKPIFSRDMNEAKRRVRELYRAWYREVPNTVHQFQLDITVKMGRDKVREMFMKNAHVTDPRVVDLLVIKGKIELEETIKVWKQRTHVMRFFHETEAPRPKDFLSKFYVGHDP

Prenylcysteine oxidase 1 = Prenylcysteine oxidase 1 (UniProt Q9UHG3); settings: SILAC chemoproteomic competition binding
Protein zwilch homolog = Protein zwilch homolog (UniProt Q9H900); settings: SILAC chemoproteomic competition binding
Ran-binding protein 6 = Ran-binding protein 6 (UniProt O60518); settings: SILAC chemoproteomic competition binding
Ran-binding protein 6, sequence (O60518 whole entry, looked up): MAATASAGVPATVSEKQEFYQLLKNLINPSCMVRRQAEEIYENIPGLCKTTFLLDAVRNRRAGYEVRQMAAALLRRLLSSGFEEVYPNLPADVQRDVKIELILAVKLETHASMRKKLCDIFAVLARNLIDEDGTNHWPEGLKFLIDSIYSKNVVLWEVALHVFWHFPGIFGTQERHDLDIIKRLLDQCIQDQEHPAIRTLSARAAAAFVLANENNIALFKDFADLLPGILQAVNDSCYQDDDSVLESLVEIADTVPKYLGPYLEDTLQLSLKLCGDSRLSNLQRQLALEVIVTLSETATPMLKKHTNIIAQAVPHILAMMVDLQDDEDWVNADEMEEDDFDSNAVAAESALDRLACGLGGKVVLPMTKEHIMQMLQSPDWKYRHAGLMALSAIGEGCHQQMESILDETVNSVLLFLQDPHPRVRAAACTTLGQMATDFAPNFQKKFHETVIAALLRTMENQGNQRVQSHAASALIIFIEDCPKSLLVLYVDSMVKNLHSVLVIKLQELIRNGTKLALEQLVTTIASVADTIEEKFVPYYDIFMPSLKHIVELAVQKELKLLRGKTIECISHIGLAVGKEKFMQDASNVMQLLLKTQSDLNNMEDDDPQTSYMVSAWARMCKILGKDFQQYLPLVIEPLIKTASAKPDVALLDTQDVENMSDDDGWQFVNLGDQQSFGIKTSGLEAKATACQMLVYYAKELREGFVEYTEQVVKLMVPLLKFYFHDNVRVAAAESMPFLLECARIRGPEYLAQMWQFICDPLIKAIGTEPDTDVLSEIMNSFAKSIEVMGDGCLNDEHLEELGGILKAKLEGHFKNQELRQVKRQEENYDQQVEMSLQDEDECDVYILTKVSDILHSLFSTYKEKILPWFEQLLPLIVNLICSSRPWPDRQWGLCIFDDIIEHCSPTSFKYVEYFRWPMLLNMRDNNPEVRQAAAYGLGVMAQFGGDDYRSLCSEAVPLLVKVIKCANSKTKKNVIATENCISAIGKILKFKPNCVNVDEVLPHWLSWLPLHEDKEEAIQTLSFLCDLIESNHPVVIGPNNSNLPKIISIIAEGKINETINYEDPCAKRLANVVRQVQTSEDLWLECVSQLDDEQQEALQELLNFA

[3] = target: Ubiquitin carboxyl-terminal hydrolase 34 (UniProt Q70CQ2); settings: SILAC chemoproteomic competition binding
Ubiquitin carboxyl-terminal hydrolase 34, sequence (Q70CQ2 whole entry, looked up): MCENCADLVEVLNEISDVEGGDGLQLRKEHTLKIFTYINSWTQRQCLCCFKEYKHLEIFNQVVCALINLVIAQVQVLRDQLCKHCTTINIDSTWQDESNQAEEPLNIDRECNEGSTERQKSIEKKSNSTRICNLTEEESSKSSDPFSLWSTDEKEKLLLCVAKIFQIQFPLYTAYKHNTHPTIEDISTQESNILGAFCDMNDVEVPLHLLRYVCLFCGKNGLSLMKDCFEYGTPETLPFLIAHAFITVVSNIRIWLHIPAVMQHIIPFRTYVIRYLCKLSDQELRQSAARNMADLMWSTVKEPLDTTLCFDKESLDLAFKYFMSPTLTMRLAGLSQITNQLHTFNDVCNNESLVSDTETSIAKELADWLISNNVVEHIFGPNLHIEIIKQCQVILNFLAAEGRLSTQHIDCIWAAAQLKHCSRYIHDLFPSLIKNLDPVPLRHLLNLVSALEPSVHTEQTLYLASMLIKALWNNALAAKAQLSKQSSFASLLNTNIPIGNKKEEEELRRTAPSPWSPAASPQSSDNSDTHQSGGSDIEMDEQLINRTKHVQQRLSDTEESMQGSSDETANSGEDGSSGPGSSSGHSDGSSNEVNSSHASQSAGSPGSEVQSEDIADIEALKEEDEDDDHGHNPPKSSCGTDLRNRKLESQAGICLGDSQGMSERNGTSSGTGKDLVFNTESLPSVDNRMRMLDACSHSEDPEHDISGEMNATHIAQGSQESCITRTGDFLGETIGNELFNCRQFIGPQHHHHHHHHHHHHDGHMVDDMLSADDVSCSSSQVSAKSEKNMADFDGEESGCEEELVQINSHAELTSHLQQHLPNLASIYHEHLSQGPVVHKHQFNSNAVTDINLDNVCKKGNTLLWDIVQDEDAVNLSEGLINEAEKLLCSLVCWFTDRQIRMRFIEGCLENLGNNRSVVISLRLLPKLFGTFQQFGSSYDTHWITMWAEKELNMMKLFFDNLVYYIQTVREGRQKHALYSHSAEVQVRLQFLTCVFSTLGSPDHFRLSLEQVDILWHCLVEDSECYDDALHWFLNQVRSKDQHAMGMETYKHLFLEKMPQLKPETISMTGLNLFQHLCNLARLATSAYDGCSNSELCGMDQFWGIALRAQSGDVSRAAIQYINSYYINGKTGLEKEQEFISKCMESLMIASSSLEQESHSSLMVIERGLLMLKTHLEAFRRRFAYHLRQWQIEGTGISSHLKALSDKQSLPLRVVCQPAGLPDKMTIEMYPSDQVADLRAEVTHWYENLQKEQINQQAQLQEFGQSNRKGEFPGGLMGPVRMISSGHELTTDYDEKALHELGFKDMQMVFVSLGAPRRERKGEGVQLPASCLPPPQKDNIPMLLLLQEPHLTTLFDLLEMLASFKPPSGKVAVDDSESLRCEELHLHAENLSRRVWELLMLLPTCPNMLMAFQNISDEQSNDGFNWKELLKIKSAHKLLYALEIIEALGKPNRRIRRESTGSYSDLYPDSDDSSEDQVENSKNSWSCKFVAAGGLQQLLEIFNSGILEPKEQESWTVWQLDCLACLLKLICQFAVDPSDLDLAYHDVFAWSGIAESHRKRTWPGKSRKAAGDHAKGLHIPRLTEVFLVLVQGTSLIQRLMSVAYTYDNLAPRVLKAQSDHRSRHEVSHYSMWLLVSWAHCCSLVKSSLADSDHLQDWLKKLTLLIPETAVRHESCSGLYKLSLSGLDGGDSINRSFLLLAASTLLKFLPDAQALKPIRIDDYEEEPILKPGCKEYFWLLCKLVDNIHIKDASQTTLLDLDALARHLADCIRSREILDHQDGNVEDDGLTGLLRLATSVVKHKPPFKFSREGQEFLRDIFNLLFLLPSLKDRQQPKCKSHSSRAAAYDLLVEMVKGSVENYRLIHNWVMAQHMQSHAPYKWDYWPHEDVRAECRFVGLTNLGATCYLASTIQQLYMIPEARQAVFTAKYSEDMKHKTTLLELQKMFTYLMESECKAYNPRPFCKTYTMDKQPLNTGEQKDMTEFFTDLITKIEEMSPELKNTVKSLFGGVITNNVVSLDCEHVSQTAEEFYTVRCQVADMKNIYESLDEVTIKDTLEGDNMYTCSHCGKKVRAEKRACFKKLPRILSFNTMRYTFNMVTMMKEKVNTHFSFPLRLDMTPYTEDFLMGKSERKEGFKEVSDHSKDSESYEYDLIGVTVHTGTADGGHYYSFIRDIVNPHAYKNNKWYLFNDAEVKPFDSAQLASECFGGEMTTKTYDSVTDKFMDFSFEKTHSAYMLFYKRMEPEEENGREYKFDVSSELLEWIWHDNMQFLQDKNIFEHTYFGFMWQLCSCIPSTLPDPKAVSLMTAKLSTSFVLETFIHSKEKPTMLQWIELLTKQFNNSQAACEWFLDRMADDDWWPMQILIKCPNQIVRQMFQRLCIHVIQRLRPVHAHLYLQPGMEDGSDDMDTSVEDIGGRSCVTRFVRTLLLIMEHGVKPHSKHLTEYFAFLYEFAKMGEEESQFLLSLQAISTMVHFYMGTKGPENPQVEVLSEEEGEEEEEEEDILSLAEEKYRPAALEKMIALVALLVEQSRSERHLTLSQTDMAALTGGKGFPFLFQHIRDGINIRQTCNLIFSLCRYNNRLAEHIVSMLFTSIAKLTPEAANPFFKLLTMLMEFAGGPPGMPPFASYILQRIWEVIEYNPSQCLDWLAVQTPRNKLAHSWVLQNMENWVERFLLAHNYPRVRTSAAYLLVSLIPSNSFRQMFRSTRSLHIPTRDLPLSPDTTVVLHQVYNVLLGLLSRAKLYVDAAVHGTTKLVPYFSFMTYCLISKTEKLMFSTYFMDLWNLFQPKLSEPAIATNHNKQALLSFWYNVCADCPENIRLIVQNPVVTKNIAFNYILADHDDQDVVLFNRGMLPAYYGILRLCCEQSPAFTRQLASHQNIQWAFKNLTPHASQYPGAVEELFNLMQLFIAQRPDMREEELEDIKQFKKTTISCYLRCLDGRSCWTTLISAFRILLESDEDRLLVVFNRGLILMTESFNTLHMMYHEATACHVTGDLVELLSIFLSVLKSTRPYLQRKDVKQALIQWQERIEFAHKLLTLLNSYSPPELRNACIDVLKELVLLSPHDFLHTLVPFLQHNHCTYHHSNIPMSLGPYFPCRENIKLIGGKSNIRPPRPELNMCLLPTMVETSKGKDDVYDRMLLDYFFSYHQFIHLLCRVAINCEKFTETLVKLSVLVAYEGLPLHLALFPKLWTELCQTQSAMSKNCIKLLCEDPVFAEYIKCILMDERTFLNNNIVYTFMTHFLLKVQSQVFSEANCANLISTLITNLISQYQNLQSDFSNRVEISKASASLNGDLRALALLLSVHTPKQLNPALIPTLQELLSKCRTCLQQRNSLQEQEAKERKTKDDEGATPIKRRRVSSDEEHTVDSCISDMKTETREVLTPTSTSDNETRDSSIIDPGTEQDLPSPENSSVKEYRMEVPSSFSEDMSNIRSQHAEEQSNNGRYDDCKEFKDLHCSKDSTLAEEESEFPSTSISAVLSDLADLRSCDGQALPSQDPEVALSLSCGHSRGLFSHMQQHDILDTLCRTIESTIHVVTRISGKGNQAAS

Ferroptosis suppressor protein 1 (Homo sapiens), sequence (Q9BRQ8 whole entry, looked up): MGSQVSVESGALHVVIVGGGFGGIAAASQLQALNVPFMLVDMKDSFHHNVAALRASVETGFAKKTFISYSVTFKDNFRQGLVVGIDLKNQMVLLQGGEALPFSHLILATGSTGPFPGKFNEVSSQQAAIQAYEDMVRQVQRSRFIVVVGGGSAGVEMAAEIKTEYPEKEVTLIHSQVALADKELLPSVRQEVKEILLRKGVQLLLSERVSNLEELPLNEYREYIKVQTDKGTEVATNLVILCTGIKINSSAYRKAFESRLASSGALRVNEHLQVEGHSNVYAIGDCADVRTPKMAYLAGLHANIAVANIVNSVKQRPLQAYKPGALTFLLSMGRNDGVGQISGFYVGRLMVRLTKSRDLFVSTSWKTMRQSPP

Kd [1]: 26.7 µM
Kd [2]: 29.3 µM
Kd (Prenylcysteine oxidase 1): 10.2 µM
Kd (Protein zwilch homolog): 18.4 µM
Kd (Ran-binding protein 6): 25.6 µM
Kd [3]: 25.7 µM
Structure (SMILES): CN1C(=O)c2cc(NC(=O)c3ccc(C(F)(F)F)cc3)ccc2OC[C@@H]2O[C@H](CC(=O)NC3Cc4ccccc4C3)CC[C@@H]21
